Values after ≈ are worked out from the molar mass of the structure shown.
Tests used:
Test in all cases: in vitro antibacterial evaluation, MIC by broth dilution
Assay type in all cases: cell-based
[1] = system: Escherichia coli; settings: 18 hours at 35° C.
[2] = system: Enterococcus sp.; settings: broth dilution, 18 hours at 35° C.
How it was run: (§1)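 Broth dilution per NCCLS standard M7-A2 in Muller-Hinton II […], with an inoculum of 5×10^5 CFU/mL and antibiotic spanning 64-0.06 μg/mL. The MIC is the lowest concentration that inhibits growth of the organism.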

[3] = system: Streptococcus sp.; settings: broth dilution, 18 hours at 35° C.
How it was run: as §1

[4] = system: Staphylococcus sp.; settings: broth dilution, 18 hours at 35° C.; for MIC Staphylococcus aureus (GC 1131): strain GC 1131
How it was run: as §1

## CC(C1CCCCC1)C1NC(=O)CNC(=O)C(CO)NC(=O)C(C(O)C2CNC(=N)N2C2OC(CO)C(O)C(O)C2O)NC(=O)C(C(O)C2CNC(=N)N2)NC(=O)C(Cc2ccc(OC3OC(CO)C(OC4OC5COC(c6ccccc6)OC5C(O)C4O)C(O)C3O)cc2)NC1=O (stereo not shown) [Example 201]
[1]
  MIC Escherichia coli (ATCC 25922): 16 µg/mL (≈ 11.5 µM)
  MIC Escherichia coli (GC 4559): 16 µg/mL (≈ 11.5 µM)
  MIC Escherichia coli (GC 4560): 0.25 µg/mL (≈ 0.18 µM)
[2]
  MIC Enterococcus avium (GC 4558): 1 µg/mL (≈ 0.72 µM)
  MIC Enterococcus faecalis (ATCC 29212): 1 µg/mL (≈ 0.72 µM)
  MIC Enterococcus faecalis (GC 2242): 1 µg/mL (≈ 0.72 µM)
  MIC Enterococcus faecalis (GC 2691): 1 µg/mL (≈ 0.72 µM)
  MIC Enterococcus faecalis (GC 3059): 1 µg/mL (≈ 0.72 µM)
  MIC Enterococcus faecalis (GC 4552): 1 µg/mL (≈ 0.72 µM)
  MIC Enterococcus faecalis (GC 4553): 1 µg/mL (≈ 0.72 µM)
  MIC Enterococcus faecalis (GC 4554): 1 µg/mL (≈ 0.72 µM)
  MIC Enterococcus faecalis (GC 6189): 1 µg/mL (≈ 0.72 µM)
  MIC Enterococcus faecium (GC 2243): 1 µg/mL (≈ 0.72 µM)
  MIC Enterococcus faecium (GC 4556): 1 µg/mL (≈ 0.72 µM)
  MIC Enterococcus faecium (GC 4557): 0.5 µg/mL (≈ 0.36 µM)
[2]; inoculum 5×10^5 CFU/mL, strain ATCC 29212
  MIC Enterococcus faecalis (ATCC 29212): 1 µg/mL (≈ 0.72 µM)
[2]; inoculum 5×10^5 CFU/mL, strain GC 2242
  MIC Enterococcus faecalis (GC 2242): 1 µg/mL (≈ 0.72 µM)
[2]; inoculum 5×10^5 CFU/mL, strain GC 2243
  MIC Enterococcus faecium (GC 2243): 1 µg/mL (≈ 0.72 µM)
[2]; inoculum 5×10^5 CFU/mL, strain GC 2691
  MIC Enterococcus faecalis (GC 2691): 1 µg/mL (≈ 0.72 µM)
[2]; inoculum 5×10^5 CFU/mL, strain GC 3059
  MIC Enterococcus faecalis (GC 3059): 1 µg/mL (≈ 0.72 µM)
[2]; inoculum 5×10^5 CFU/mL, strain GC 4552
  MIC Enterococcus faecalis (GC 4552): 1 µg/mL (≈ 0.72 µM)
[2]; inoculum 5×10^5 CFU/mL, strain GC 4553
  MIC Enterococcus faecalis (GC 4553): 1 µg/mL (≈ 0.72 µM)
[2]; inoculum 5×10^5 CFU/mL, strain GC 4554
  MIC Enterococcus faecalis (GC 4554): 1 µg/mL (≈ 0.72 µM)
[2]; inoculum 5×10^5 CFU/mL, strain GC 4556
  MIC Enterococcus faecium (GC 4556): 1 µg/mL (≈ 0.72 µM)
[2]; inoculum 5×10^5 CFU/mL, strain GC 4557
  MIC Enterococcus faecium (GC 4557): 0.5 µg/mL (≈ 0.36 µM)
[2]; inoculum 5×10^5 CFU/mL, strain GC 4558
  MIC Enterococcus avium (GC 4558): 1 µg/mL (≈ 0.72 µM)
[2]; inoculum 5×10^5 CFU/mL, strain GC 6189
  MIC Enterococcus faecalis (GC 6189): 1 µg/mL (≈ 0.72 µM)
[3]
  MIC Streptococcus agalactiae (GC 4564): <0.12 µg/mL
  MIC Streptococcus pneumoniae (ATCC 6301): <0.12 µg/mL
  MIC Streptococcus pneumoniae (GC 1894): <0.12 µg/mL
  MIC Streptococcus pneumoniae (GC 4565): <0.12 µg/mL
  MIC Streptococcus pyogenes (GC 4563): <0.12 µg/mL
[3]; inoculum 5×10^5 CFU/mL, strain ATCC 6301
  MIC Streptococcus pneumoniae (ATCC 6301): <0.12 µg/mL
[3]; inoculum 5×10^5 CFU/mL, strain GC 1894
  MIC Streptococcus pneumoniae (GC 1894): <0.12 µg/mL
[3]; inoculum 5×10^5 CFU/mL, strain GC 4563
  MIC Streptococcus pyogenes (GC 4563): <0.12 µg/mL
[3]; inoculum 5×10^5 CFU/mL, strain GC 4564
  MIC Streptococcus agalactiae (GC 4564): <0.12 µg/mL
[3]; inoculum 5×10^5 CFU/mL, strain GC 4565
  MIC Streptococcus pneumoniae (GC 4565): <0.12 µg/mL
[4]; inoculum 5×10^5 CFU/mL
  MIC Staphylococcus aureus (GC 1131): 0.25 µg/mL (≈ 0.18 µM)
[4]; strain ATCC 29213
  MIC Staphylococcus aureus (ATCC 29213): 0.25 µg/mL (≈ 0.18 µM)
[4]
  MIC Staphylococcus aureus (GC 1131): 0.25 µg/mL (≈ 0.18 µM)
[4]; strain GC 3051
  MIC Staphylococcus aureus (GC 3051): 0.5 µg/mL (≈ 0.36 µM)
[4]; strain GC 3053
  MIC Staphylococcus aureus (GC 3053): 0.5 µg/mL (≈ 0.36 µM)
[4]; strain GC 4541
  MIC Staphylococcus aureus (GC 4541): 0.5 µg/mL (≈ 0.36 µM)
[4]; strain GC 4542
  MIC Staphylococcus aureus (GC 4542): 0.25 µg/mL (≈ 0.18 µM)
[4]; strain GC 4543
  MIC Staphylococcus aureus-SMITH (GC 4543): 0.5 µg/mL (≈ 0.36 µM)
[4]; strain GC 4544
  MIC Staphylococcus aureus (GC 4544): 0.25 µg/mL (≈ 0.18 µM)
[4]; strain GC 4545
  MIC Staphylococcus aureus (GC 4545): 0.25 µg/mL (≈ 0.18 µM)
[4]; strain GC 4546
  MIC Staphylococcus haemolyticus (GC 4546): 0.25 µg/mL (≈ 0.18 µM)
[4]; strain GC 4547
  MIC Coagulase Negative Staphylococcus (GC 4547): 0.25 µg/mL (≈ 0.18 µM)
[4]; strain GC 4548
  MIC Coagulase Negative Staphylococcus (GC 4548): 0.25 µg/mL (≈ 0.18 µM)
[4]; strain GC 4549
  MIC Coagulase Negative Staphylococcus (GC 4549): 0.25 µg/mL (≈ 0.18 µM)
[4]; strain GC 4551
  MIC Coagulase Negative Staphylococcus (GC 4551): 0.25 µg/mL (≈ 0.18 µM)
